The values that follow are results of earlier work, collected in patent publication EP0495131B1, “AGENT FOR PREVENTING AND TREATING HEPATITIS” (priority 1990, dated 1992).

This data set has as its system hepatitis, especially B-type hepatitis. The note with it: percentage of patients in which antigen is converted into negative and antibody into positive; anti-virus agents for hepatitis.

`Nc1ncnc2c1ncn2[C@@H]1O[C@H](CO)[C@@H](O)[C@@H]1O` [Ara-A, adenine arabinoside]: the “rate of the seroconversion (SC rate)” value is recorded as 0-30%. As for `Nc1nc2c(ncn2COCCO)c(=O)[nH]1` [acyclovir], the “rate of the seroconversion (SC rate)” value is reported as “about 27%”.
